# Legend:
# [1] = system: chronic biofilm infection; test: Diabetic murine model of chronic biofilm infection (excisional wound); format: in vivo, db/db diabetic mice; details: 0.3 mg/mL in hydrogel, topical at 24 h, 8 and 15 days; assessed day 21 to 28 post wounding; 7 mice
# Source text: The effects of administration of Compound 4 on biofilm infection in vivo was studied in a diabetic murine model of chronic biofilm infection (Zhao et al. 2010). In this study we used methods described by Dhall et al. (2014) in which bacterial biofilm infections develop spontaneously following wound creation.
# Briefly, db/db diabetic mice (>6 months old) were housed for 4-5 weeks in non-sterile conditions prior to the creation of wound on the back of each mouse with a 6 mm diameter excisional punch biopsy. Mice were then administered a catalase inhibitor intra-peritoneally (1 g/kg aminotriazole) and a glutathione peroxidase (GPx) inhibitor topically around the edge of the wound site (1 g/kg mercaptosuccinic acid) prior to dressing with Tegaderm. After 24 h, biofilms were evident at the wound site on all mice. The mice where divided into two groups (7 mice per group) and treated with either Compound 4 (0.3 mg/mL in a hydrogel vehicle) or a Control treatment (hydrogel vehicle only). The Tegaderm dressing was the then replaced. Two further administrations of Compound 4 or the Control (vehicle only) were performed at 8 and 15 days. No antibiotics or other antibacterial treatments were applied during the study.
# The presence of biofilm and the surface area of the wound were assessed over the course of the study. […]
# [2] = system: E. coli IR57 biofilm; test: Disruption of established in vitro biofilm, CLSM with COMSTAT image analysis; format: cell-based, Escherichia coli; details: E. coli IR57 24 h biofilm, 256 μg/mL, further 24 h; vs untreated and ethanol blank controls
# Method: The effects of administration of Compounds 1, 4 and 6 and comparator compound CC-1 on disruption of established in vitro biofilms of Escherichia coli (E. coli) was investigated using methods described in Powell et al. (2018).
# (§1) Biofilms of E. coli IR57 were grown on 96-well glass-bottomed plates in Mueller-Hinton (MH) broth for 24 h, before 50% of the supernatant was replaced with fresh MH broth with or without the epoxytiglienone compound added to a final concentration of 256 μg/mL (vehicle is ethanol). An ethanol equivalent blank was used as a further control treatment. The plates were then incubated for a further 24 h at 37° C.
# (§2) Confocal laser scanning microscopy (CLSM) was then used to image the biofilms, following staining with Live/Dead® Baclight stain with phosphate buffered saline (PBS) added to each well before imaging with z-stack CLSM. The resultant images were analysed by COMSTAT software to produce measurements of (i) biofilm biomass volume or bio-volume (μm^3/μm^2) and (ii) DEAD/LIVE bacterial ratio.
# [3] = system: isolated human neutrophils; test: LL-37 release from neutrophils, ELISA; format: cell-based; details: 3 hours after treatment, 62.5, 125, 250 and 500 μM
# Method: (§3) For these assays, neutrophils were isolated from fresh blood of a healthy human donor by lysis of a red blood cell pellet that had been obtained by Ficoll-Paque sedimentation. The neutrophils (˜4×10^6 cells/mL) were incubated with 10 μg/mL dihydroethidium (DHE) (Sigma-Aldrich) in complete culture medium at 37° C. for 15 min alongside an aliquot of unstained cells to be tested as unstained control.
# To examine antimicrobial peptide release by neutrophils in response to treatment with Compound 4, isolated neutrophils were incubated with either vehicle or Compound 4 at the four concentrations (62.5, 125, 250 and 500 μM). At 3 h, cell culture supernatants were removed and tested for LL-37 content using a LL-37-directed ELISA kit (Hycult Biotech). ELISA readings were normalised to vehicle only controls to determine fold increases in LL-37 release.
# [4] = system: isolated human neutrophils; test: NETosis/necrosis assay, Hoescht/Sytox Green fluorescence; format: cell-based
# Method: as §3
# NETosis/necrosis assays followed methods fully described by Brinkmann et al. 2010. Isolated neutrophils were plated into 96-well plates (RPMI1640, 10% FCS) and incubated with a 1:50,000 dilution of Hoescht (10 mg/mL) and Sytox® Green (5 mM). Compound 4 was added at six concentrations (0.005, 0.05, 0.5. 5, 50, 500 μM) and the cells incubated at 37° C., 5% CO2. Vehicle treated controls were included in all assays and there were three replicates of each assay. Hoescht/Sytox® Green fluorescence images were recorded for each well at 3 and 6 hours.
# [5] = system: P. aeruginosa PAO1 biofilm; test: Disruption of established in vitro biofilm, CLSM with COMSTAT image analysis; format: cell-based, Pseudomonas aeruginosa; details: 256 μg/mL
# Method: as §1, §2
# The effects of the epoxytiglienones (Compounds 1, 4, 6 and the comparator compound CC-1) on disruption of established in vitro biofilms were further investigated with two other species of Gram-negative bacteria (Pseudomonas aeruginosa PA01 and Acinetobacter baumannii 7789) using methods described in Example 2 above. Cell permeabilisation following Compound 1, 4 and 6 treatment was also determined using SYTOX™ Green Nucleic Acid Stain with untreated control and positive control of 70% isopropanol.
smiles,measurement,setting,value
"CCCCCC(=O)OC1C(C)C2(O)C(C3OC3(CO)C(O)C3(O)C(=O)C(C)=CC32)C2C(C)(C)C12OC(=O)CCCCC (centres unmarked) [Compound 4, 12,13-dihexanoyl-6,7-epoxy-4,5,9,12,13,20-hexahydroxy-1-tiglien-3-one]","mice with complete wound healing (complete re-epithelialisation, resolution of inflammation, absence of bacteria within the dermis)",[1],6 of the 7
same,biofilm bio-volume (COMSTAT),[2],Decreases in bio-volume were evident
same,distribution and density of bacteria in the biofilm (CLSM),[2],significant changes
same,Release of LL-37 from neutrophils,[3],increased in a concentration dependent manner
same,chromatin appearance in neutrophils (more diffuse),[4]; 50 μM,NETosis has occurred
same,chromatin appearance in neutrophils (condensed),[4]; 500 μM,necrosis has occurred
same,NETosis and necrosis of neutrophils,"[4]; 3 hours after treatment, 50 μM and 500 μM",initially observed
same,NETosis and necrosis of neutrophils,"[4]; 6 hours, four lower concentrations 0.005 μM-5 μM",evident
same,biofilm distribution (CLSM),[5]; compared to other treatments,significant effect
same,biofilm bio-volume (COMSTAT),[5]; compared to other treatments (P<0.05),significant effect
same,DEAD/LIVE bacterial ratio,[5]; vs untreated and ethanol blank controls,no significant differences
